Patent publication US9221839B2, “C5-C6 oxacyclic-fused thiadiazine dioxide compounds as BACE inhibitors, compositions, and their use” (Merck Sharp & Dohme Corp., priority 2011, dated 2015)

Experiments:
[1] = biological target: soluble human BACE1 catalytic domain (Homo sapiens (Human), UniProt P56817); assay: BACE1 HTRF FRET Assay; type: biochemical; conditions: Ki calculated from IC50 using the Cheng-Prusoff equation
Description: Na^+-Acetate pH 5.0; 1% Brij-35; Glycerol; Dimethyl Sulfoxide (DMSO); Recombinant human soluble BACE1 catalytic domain (>95% pure); APP Swedish mutant peptide substrate (QSY7-APP^swe-Eu): QSY7-[…]-Europium-amide.
A homogeneous time-resolved FRET assay can be used to determine IC50 values for inhibitors of the soluble human BACE1 catalytic domain. This assay monitors the increase of 620 nm fluorescence that resulted from BACE1 cleavage of an APPswedish APP^swe mutant peptide FRET substrate (QSY7-[…]-Europium-amide). This substrate contains an N-terminal QSY7 moiety that serves as a quencher of the C-terminal Europium fluorophore (620 nm Em). In the absence of enzyme activity, 620 nm fluorescence is low in the assay and increased linearly over 3 hours in the presence of uninhibited BACE1 enzyme Inhibition of BACE1 cleavage of the QSY7-APP^swe-Eu substrate by inhibitors is manifested as a suppression of 620 nm fluorescence.
Reactions are initiated by addition of 10 μl of 600 nM QSY7-APP^swe-Eu substrate (200 nM final) to give a final reaction volume of 30 μl in a 384 well Nunc HTRF plate. The reactions are incubated at 30° C. for 1.5 hours. The 620 nm fluorescence is then read on a Rubystar HTRF plate reader (BMG Labtechnologies) using a […] delay followed by a 400 millisecond acquisition time window. Inhibitor IC50 values are derived from non-linear regression analysis of concentration response curves.

[2] = biological target: purified human autoBACE-2 (Homo sapiens, UniProt Q9Y5Z0); assay: BACE-2 Assay (BACE-HTRF assay); type: biochemical; conditions: Ki calculated from IC50 using the Cheng-Prusoff equation; read-out: BACE2 Ki
Description: Following laser excitation of sample wells at 320 nm, the fluorescence signal at 620 nm is collected for 400 ms following a 50 μs delay on a RUBYstar HTRF plate reader (BMG Labtechnologies). Raw RFU data is normalized to maximum (1.0 nM BACE/DMSO) and minimum (no enzyme/DMSO)RFU values. […] The Ki values are calculated from the IC50 using the Cheng-Prusoff equation.

Chain of soluble human BACE1 catalytic domain (P56817 75-416): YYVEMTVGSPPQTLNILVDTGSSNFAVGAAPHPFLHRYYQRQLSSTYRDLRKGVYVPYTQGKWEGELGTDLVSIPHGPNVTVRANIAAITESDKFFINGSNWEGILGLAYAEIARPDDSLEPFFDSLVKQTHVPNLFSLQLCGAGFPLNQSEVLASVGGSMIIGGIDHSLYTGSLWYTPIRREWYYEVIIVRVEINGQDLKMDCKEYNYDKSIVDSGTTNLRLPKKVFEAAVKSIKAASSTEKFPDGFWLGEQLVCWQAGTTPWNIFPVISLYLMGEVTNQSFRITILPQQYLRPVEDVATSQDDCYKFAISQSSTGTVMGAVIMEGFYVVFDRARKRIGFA
Chain of purified human autoBACE-2 (Q9Y5Z0 63-518 limits assumed): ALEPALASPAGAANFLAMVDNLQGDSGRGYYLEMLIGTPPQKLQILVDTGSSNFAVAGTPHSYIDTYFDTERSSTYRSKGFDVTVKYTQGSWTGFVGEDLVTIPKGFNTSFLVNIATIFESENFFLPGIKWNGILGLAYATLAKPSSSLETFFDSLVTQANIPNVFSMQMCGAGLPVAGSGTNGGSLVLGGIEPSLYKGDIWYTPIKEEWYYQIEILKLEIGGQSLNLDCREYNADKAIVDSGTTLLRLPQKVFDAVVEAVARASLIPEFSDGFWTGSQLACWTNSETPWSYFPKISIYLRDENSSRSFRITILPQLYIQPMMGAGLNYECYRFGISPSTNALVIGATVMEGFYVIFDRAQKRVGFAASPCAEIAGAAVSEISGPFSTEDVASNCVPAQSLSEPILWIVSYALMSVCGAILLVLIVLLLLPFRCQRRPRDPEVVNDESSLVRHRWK

Row | Structure (SMILES) | Ki [1] [nM] | Ki [2] [nM]
1 | CN1C(=N)N[C@@]2(c3cc(NC(=O)c4ccc(F)cn4)ccc3F)COC[C@H]2S1(=O)=O [Example 1] | 13 | 1.9
2 | CN1C(=N)N[C@]2(c3cc(NC(=O)c4ccc(F)cn4)ccc3F)COC[C@@H]2S1(=O)=O [Example 1a] | 3530 | 491
3 | COc1ccc(C(=O)Nc2ccc(F)c([C@]34COC[C@H]3S(=O)(=O)N(C)C(=N)N4)c2)nc1 [Example 3] | 18.2 | 8.2
4 | COc1ccc(C(=O)Nc2ccc(F)c([C@@]34COC[C@@H]3S(=O)(=O)N(C)C(=N)N4)c2)nc1 [Example 3a] | 872 | 476
5 | COc1cnc(C(=O)Nc2ccc(F)c([C@]34COC[C@H]3S(=O)(=O)N(C)C(=N)N4)c2)cn1 [Example 4] | 54.1 | 48.4
6 | COc1cnc(C(=O)Nc2ccc(F)c([C@@]34COC[C@@H]3S(=O)(=O)N(C)C(=N)N4)c2)cn1 [Example 4a] | 1330 | 1510
7 | CN1C(=N)N[C@@]2(c3cc(NC(=O)c4ccc(Cl)cn4)ccc3F)COC[C@H]2S1(=O)=O [Example 5] | 5.07 | 1.3
8 | CN1C(=N)N[C@]2(c3cc(NC(=O)c4ccc(Cl)cn4)ccc3F)COC[C@@H]2S1(=O)=O [Example 5a] | 197 | 55.2
9 | CN1C(=N)N[C@@]2(c3cc(NC(=O)c4ccc(C(F)(F)F)cn4)ccc3F)COC[C@H]2S1(=O)=O [Example 6] | 9.79 | 19.5
10 | CN1C(=N)N[C@]2(c3cc(NC(=O)c4ccc(C(F)(F)F)cn4)ccc3F)COC[C@@H]2S1(=O)=O [Example 6a] | 354 | 473
11 | CN1C(=N)N[C@@]2(c3cc(NC(=O)c4cnc(C(F)(F)F)cn4)ccc3F)COC[C@H]2S1(=O)=O [Example 6d] | 28.4 | 55
12 | COc1cnc(C(=O)Nc2ccc(F)c([C@]34COC[C@H]3S(=O)(=O)N(C)C(=N)N4)c2)c(F)c1 [Example 6e] | 15.8 | 6.9
13 | CN1C(=N)NC2(c3ccccc3F)COCC2S1(=O)=O (centres unmarked) [Example 6f] | 7850 | 4200
